From paper PMC10573892, “β-Lactam TRPM8 Antagonists Derived from Phe-Phenylalaninol Conjugates: Structure–Activity Relationships and Antiallodynic Activity” (International Journal of Molecular Sciences, 2023) come the findings set out here.

For one test, the target named is hM3 (Homo sapiens, UniProt P20309). Kind of test: Radioligand binding at muscarinic M3 receptor. To be noted: radioligand [3H]4-DMAP. The source says:
(§1) Furthermore, the investigation extended to measuring the binding affinity of compound 34 to calcitonin gene-related peptide hCGRPR, cannabinoid hCB2 and muscarinic hM3 receptors, which are all relevant to different pain conditions.

For test [1], the system named is dorsal root ganglia (DRG) sensory neurons. Kind of test: Resting membrane potential of DRG sensory neurons (current clamp Patch-Clamp). The test is classed as cell-based. To be noted: 10 µM. On the procedure:
We also investigated the effect of β-lactams derivatives on the resting membrane potential (RMP) of dorsal root ganglia (DRG) sensory neurons.
(A) Representative recordings of resting membrane potential measured under current clamp configuration. The traces show the action potentials (APs) firings from DRG neurons elicited by 100 μM menthol (left trace) or in the presence of vehicle (0.5% DMSO) or the β-lactams derivatives ([…]). (B) Changes in the Vm in the absence and in the presence of 10 μM of the β-lactams derivatives. Data were analyzed by one-way ANOVA followed by Bonferroni post hoc test for multiple comparisons (ns = no significance, **** p < = 0.0001) and given as mean ± SEM; n ≥ 40 cells from 4 cultures.

The next test has as its target hCGRPR (Homo sapiens, UniProt O60894+Q16602). Kind of test: Radioligand binding at CGRP receptor. To be noted: radioligand [125]hGCRPα.
Description: as §1

The next test addresses T1, hTRPA1 (Homo sapiens, UniProt O75762).
T1 construct: Eurofins-CEREP or Eurofins-PANLABS (contract assay)
Kind of test: TRPA1 channel Ca2+ microfluorimetry (allylisothiocyanate 10 μM). The test is classed as cell-based. To be noted: agonist allylisothiocyanate 10 μM. From the text:
(§2) The effects of compound 34 have been evaluated on different ion channels and receptors implicated in pain-related processes to assess the selectivity for TRPM8 channels. First, some TRP channels that play a role in temperature integration and nociception were selected, including hTRPV1, hTRPV3, hTRPA1 and TRPM3. Additionally, the evaluation encompassed the hASIC3 channel with widespread distribution within the peripheral nervous system and contributions to the excitability of primary sensory neurons. In each instance, the compound was subjected to evaluation at a consistent concentration of 10 µM.
(§3) Calcium fluorometry, Patch-Clamp assays and in vivo experiments were performed using the methodology previously described for TRPM8 [35] or TRPM3 [61]. In the Patch -Clamp experiments, the intracellular pipette solution contained (in mM) 140 KCl, 5 EGTA, and 10 mM HEPES, adjusted to pH 7.2 with KOH, and the extracellular solution contained (in mM) 140 NaCl, 2 CaCl2, 1 MgCl2, 10 D-glucose and 10 HEPES, adjusted to pH 7.4 with NaOH. Selectivity against TRPV1, TRPV3, TRPA1 and ASIC3 was subcontracted to Eurofins-CEREP or Eurofins-PANLABS (see ref. [35] for more details).

Another test has as its target T2, hTRPV3 (Homo sapiens, UniProt Q8NET8).
T2 construct: Eurofins-CEREP or Eurofins-PANLABS (contract assay)
T2 sequence (Q8NET8 1-790): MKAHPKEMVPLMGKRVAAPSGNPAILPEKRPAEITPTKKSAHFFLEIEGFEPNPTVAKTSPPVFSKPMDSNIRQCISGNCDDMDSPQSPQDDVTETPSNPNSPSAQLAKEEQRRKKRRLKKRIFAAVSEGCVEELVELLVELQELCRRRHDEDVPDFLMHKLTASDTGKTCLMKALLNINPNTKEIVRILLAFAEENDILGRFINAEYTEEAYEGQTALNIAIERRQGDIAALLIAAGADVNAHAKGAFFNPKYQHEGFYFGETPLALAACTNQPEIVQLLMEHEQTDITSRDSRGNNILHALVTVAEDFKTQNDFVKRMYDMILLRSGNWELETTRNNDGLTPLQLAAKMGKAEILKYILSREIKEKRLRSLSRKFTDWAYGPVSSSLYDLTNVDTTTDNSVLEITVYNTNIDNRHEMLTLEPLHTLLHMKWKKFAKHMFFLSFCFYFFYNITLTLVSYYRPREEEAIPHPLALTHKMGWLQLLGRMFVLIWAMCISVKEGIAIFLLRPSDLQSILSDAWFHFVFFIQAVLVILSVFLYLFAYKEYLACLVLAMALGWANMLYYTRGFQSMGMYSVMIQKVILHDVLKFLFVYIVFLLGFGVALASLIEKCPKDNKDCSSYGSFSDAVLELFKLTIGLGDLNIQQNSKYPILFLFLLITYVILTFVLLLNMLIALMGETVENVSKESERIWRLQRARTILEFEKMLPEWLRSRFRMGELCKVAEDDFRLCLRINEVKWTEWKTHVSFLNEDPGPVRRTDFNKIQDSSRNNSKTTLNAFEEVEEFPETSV
The test can be described thus: TRPV3 channel Ca2+ microfluorimetry (2-APB 30 μM). The test is classed as cell-based. To be noted: agonist 2-APB 30 μM.
Description: as §2, §3

The subject of test [2] is oxaliplatin-induced cold hypersensitivity. Kind of test: Oxaliplatin-induced cold allodynia in mice (acetone drop test). It counts as in vivo.
Description: It is established that treatments with the chemotherapeutic drug oxaliplatin (OXA) induce painful peripheral neuropathy, known as CIPN, which becomes more pronounced in cold conditions. The TRPM8 channel has been implicated in mouse models of CIPN pain induced by OXA [19, 51]. In fact, the OXA-induced peripheral neuropathy mouse model is being used for the pharmacological characterization of TRPM8 antagonists. For this peripheral neuropathy assay, mice were subcutaneously (s.c.) injected with OXA at a dose of 6 mg/kg dose on days 1, 3 and 5 to male mice to induce increased sensitivity to cold, which can be monitored through the acetone drop test.
Consequently, compounds 34 and 35 have been tested for their ability to alleviate OXA-induced cold hypersensitivity after intraplantar administration (i.pl., 3, 1 and 0.1 μg). […] This effect was observed 15 min post-administration and sustained up to 60 min.
as §3
Figure 4 Effects of compounds 34 (A) and 35 (B) on the oxaliplatin (OXP)-induced cold hypersensitivity (drop acetone test). Peripheral neuropathy was induced in male mice by injecting OXA (6 mg/kg, s.c.) on days 1, 3 and 5. Control animals were treated with vehicle. Compounds 34 (A) and 35 (B) (3 µg/i.pl., 1 µg/i.pl. and 0.1 µg/i.pl.) were administered to the OXP-treated animals, and the time-course of cold hypersensitivity was measured. Data are given ± SEM (n = 5). Statistical analysis, comparing with oxaliplatin-treated mice, was performed by two-way ANOVA followed by post hoc Bonferroni test by multiple comparisons: * […], ** p < 0.01, **** p < 0.0001.

hCGRPR, sequence (Q16602 23-461): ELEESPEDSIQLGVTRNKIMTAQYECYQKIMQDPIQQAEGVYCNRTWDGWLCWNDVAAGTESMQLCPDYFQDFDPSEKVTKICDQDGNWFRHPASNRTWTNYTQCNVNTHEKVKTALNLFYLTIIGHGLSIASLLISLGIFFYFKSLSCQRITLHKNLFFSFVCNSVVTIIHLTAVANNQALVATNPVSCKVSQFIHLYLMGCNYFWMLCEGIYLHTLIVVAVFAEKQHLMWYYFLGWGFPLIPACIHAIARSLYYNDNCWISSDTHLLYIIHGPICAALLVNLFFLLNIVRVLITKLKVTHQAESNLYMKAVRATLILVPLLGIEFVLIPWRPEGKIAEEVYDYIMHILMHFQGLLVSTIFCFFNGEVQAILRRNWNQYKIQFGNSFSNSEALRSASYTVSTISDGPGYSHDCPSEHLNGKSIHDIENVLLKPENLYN
hCGRPR, sequence (O60894 27-148): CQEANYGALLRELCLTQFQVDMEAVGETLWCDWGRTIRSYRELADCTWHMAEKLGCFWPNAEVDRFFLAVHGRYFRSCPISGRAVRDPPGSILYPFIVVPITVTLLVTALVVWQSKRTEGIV
hM3, sequence (P20309 whole entry): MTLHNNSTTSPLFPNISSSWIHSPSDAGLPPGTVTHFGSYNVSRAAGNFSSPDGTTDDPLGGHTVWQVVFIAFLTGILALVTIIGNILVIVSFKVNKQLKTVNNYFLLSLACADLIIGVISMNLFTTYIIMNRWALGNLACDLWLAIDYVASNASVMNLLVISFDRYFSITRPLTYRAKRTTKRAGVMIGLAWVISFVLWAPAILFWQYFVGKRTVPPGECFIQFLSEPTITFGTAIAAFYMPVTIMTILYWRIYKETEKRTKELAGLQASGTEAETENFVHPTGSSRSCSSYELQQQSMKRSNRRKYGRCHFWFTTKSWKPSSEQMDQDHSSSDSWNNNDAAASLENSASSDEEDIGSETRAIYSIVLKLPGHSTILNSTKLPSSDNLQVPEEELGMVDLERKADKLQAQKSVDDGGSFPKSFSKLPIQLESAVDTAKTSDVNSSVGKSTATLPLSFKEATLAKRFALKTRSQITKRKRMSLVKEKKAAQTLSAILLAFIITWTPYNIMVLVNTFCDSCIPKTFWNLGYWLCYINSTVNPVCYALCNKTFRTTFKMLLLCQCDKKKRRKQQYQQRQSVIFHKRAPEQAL
T1 sequence (O75762 whole entry): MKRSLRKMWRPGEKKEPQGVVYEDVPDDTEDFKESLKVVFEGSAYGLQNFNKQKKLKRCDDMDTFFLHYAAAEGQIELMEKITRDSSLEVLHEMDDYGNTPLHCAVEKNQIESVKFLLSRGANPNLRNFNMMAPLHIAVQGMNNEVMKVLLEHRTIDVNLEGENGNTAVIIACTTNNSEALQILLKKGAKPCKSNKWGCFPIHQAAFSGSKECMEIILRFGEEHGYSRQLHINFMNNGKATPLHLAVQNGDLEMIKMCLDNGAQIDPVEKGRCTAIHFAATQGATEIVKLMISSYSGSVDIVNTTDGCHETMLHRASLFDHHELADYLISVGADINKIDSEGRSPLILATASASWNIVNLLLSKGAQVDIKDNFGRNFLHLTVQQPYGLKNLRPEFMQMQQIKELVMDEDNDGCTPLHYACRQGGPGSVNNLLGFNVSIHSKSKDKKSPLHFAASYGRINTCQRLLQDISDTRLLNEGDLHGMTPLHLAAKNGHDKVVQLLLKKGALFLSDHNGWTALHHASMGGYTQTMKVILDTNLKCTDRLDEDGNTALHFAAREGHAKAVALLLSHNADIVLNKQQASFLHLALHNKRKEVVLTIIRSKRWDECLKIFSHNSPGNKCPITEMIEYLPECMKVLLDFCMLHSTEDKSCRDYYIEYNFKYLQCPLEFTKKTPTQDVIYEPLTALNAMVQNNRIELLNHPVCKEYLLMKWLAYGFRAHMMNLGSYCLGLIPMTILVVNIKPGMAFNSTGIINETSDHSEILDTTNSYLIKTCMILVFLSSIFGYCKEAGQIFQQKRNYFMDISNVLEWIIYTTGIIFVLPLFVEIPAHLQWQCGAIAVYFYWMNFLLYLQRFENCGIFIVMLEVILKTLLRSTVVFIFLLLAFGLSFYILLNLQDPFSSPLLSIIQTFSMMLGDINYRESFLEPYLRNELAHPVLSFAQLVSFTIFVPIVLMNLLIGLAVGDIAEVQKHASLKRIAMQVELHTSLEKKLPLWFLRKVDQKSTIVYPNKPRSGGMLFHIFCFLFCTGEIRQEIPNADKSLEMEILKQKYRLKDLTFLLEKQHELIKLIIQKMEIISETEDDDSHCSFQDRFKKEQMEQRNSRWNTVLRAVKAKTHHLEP

The inhibition is the change of the read-out against control, counted positive when it falls. Regarding `CC(C)CNC(=O)[C@]1(Cc2ccccc2)[C@H](C)C(=O)N1C[C@H](Cc1ccccc1)N(Cc1ccccc1)Cc1ccccc1` [Compound 34, 4S-Benzyl-4-[N-(iso-butyl)-carbamoyl]-3S-methyl-1-[(2′S-dibenzylamino-3′-phenyl)prop-1′-yl]-2-oxoazetidine], the inhibition at 10 µM at hM3 is 5.2 ± 3.2%; on hCGRPR, -11.9 ± 5.2%; on hTRPA1 it was 2 ± 3.4%; on hTRPV3, 17.3 ± 5.7%. Moreover, the “effect on resting membrane potential (RMP)” value in test [1] is “did not alter the RMP”. Also, the “time the antiallodynic effect is sustained” value in test [2] (i.pl., observed from 15 min post-administration) is given as “up to 60 min”. In addition, the “effect on cold-induced paw licking” value in test [2] (male mice, OXA 6 mg/kg s.c. days 1, 3, 5, i.pl. 3, 1 and 0.1 μg) is “dose-dependent and significant reduction”.
